Data on three substances can be found in paper PMC9784828, “Antimicrobial Activity of Peptide-Coupled Antisense Peptide Nucleic Acids in Streptococcus pneumoniae” (Microbiology Spectrum, 2022).

Assay [1] relates to ply (pneumolysin) transcript. As to the kind of experiment: RT-qPCR, relative expression of virulence gene ply. The class given is cell-based, Streptococcus pneumoniae. As to conditions: TIGR4; 10 μM CPP-anti-rpoB PNA; normalised to 5S rRNA; n = 3. The protocol:
(§1) Because the product of rpoB is the β-subunit of the bacterial RNA-polymerase, which is responsible for RNA synthesis, downregulation of rpoB by treatment with antisense PNAs is expected to affect gene expression. Therefore, we tested the relative expression of two virulence factor genes following treatment with 10 μM CPP-anti-rpoB PNAs compared to expression in the mock-treated control as an example (Fig. 3C and D).
(§2) For RNA isolation, 450 μL bacterial suspension (10^5 CFU/mL in BHI) was prepared for each experimental condition, treated with CPP-PNA conjugates as indicated, and incubated in a 2-mL reaction tube for 6 h at 37°C and 7 rpm (Rotor SB3; Stuart, Staffordshire, United Kingdom). Subsequently, five samples per condition were pooled. Bacteria were pelleted immediately, shock-frozen in liquid nitrogen, and stored at −80°C until use. Total RNA was extracted according to the protocol published by Li-Korotky et al. ([46]). […]
(§3) cDNA synthesis was performed using the Superscript First-Strand Synthesis system for RT-qPCR (Invitrogen, Thermo Fisher Scientific, Darmstadt, Germany). Quantitative PCR amplification was conducted with SYBR Green (Thermo Fisher Scientific) using the LightCycler 480 real-time PCR system (Roche Diagnostics GmbH, Mannheim, Germany). […] Relative expression was calculated using the 2^–ΔΔ^CT method ([27]). […]

Assay [2] relates to rpoB mRNA. In words: RT-qPCR, relative expression of rpoB. The class given is cell-based, Streptococcus pneumoniae. As to conditions: TIGR4; 10 μM CPP-anti-rpoB PNA; 6 h; normalised to 5S rRNA; n = 3. The protocol: (§4) We investigated the influence of treatment with CPP-conjugated antisense PNAs on the amount of target gene mRNA in S. pneumoniae using reverse transcription-quantitative PCR (RT-qPCR) (Fig. 3). S. pneumoniae strain TIGR4 was treated with a sublethal dose (log CFU reduction of <2) of CPP-PNA conjugates. Transcript abundance of the 5S rRNA gene was used for normalization ([27]). Target gene mRNA levels in mock-treated bacteria served as controls. Treatment with 7.5 μM CPP-anti-gyrA PNAs and 10 μM CPP-anti-rpoB PNAs led to significant reductions in the respective target gene transcripts compared to the untreated control sample (Fig. 3).
(§5) For RNA isolation, 450 μL bacterial suspension (10^5 CFU/mL in BHI) was prepared for each experimental condition, treated with CPP-PNA conjugates as indicated, and incubated in a 2-mL reaction tube for 6 h at 37°C and 7 rpm (Rotor SB3; Stuart, Staffordshire, United Kingdom). Subsequently, five samples per condition were pooled. […]
as §3

Assay [3] has as its system pspA (pneumococcal surface protein A) transcript. As to the kind of experiment: RT-qPCR, relative expression of virulence gene pspA. As to conditions: TIGR4; 10 μM CPP-anti-rpoB PNA; normalised to 5S rRNA; n = 3. The assay is classed as cell-based, Streptococcus pneumoniae. The protocol: as §1, §2, §3
For assay [4], the system named is S. pneumoniae TIGR4. In words: In vitro time-killing assay (killing kinetics). As to conditions: 10 μM, n = 3. The assay is classed as cell-based, Streptococcus pneumoniae. On the procedure: The antimicrobial activity kinetics of TAT- and (RXR)4XB-conjugated anti-gyrA PNA constructs in S. pneumoniae TIGR4 were studied using an in vitro time-killing assay. Bacteria were treated with 10 μM CPP-antisense PNAs or scrambled control PNAs (Fig. 2). Samples were collected every 2 h following antisense treatment. CFU/mL was determined by plating of serial dilutions and plotted over time. […] In contrast, (RXR)4XB-conjugated anti-gyrA PNA treatment led to a continuous reduction in S. pneumoniae CFU until complete eradication after 12 h.
For monitoring of killing kinetics, samples were collected 2 to 12 h post-treatment. Viable cell counts were determined by plating appropriate dilutions on BHI agar plates. CFU were determined by visual inspection following overnight incubation at 37°C under a 5% CO2 atmosphere. At time point 0, the viable cell count corresponded to 1 × 10^5 to 3 × 10^5 CFU/mL.

The test system of assay [5] is G. mellonella larvae infected with S. pneumoniae TIGR4. As to the kind of experiment: G. mellonella infection model, bacterial load. The assay is classed as in vivo, Galleria mellonella. As to conditions: 10 nmol CPP-PNA/larva; 24 h postinfection; n = 4 larvae per group, three experiments. The protocol: To establish the antibacterial effect of PNAs in the invertebrate infection model, we assessed the bacterial loads in infected larvae (Fig. 6). Larvae were infected and subsequently treated with NaCl (mock), 10 nmol CPP-PNA, or levofloxacin (positive control), respectively. From each group, four larvae were homogenized at 24 h postinfection. CFU/larva were determined following serial dilutions of the suspension and plating on selective medium. Treatment with (RXR)4XB-anti-gyrA caused a log CFU reduction of 1 compared to that in the mock-treated larvae. The addition of 1 or 10 μg levofloxacin led to a log CFU reduction of 2 or 6, respectively.
For determination of bacterial load, larvae were infected and subsequently treated with NaCl (mock), CPP-PNAs, or levofloxacin (positive control). At 24 h after infection, larvae were homogenized. Following serial dilution, the suspension was plated on selective medium (BD Columbia CNA Agar with 5% sheep blood; Becton Dickinson GmbH, Heidelberg, Germany). Agar plates were incubated overnight at 37°C, 5% CO2. CFU/larva was determined by visual inspection. Colony identity was verified on a random basis by colony PCR using ply-specific primers.

The subject of assay [6] is gyrA mRNA. As to the kind of experiment: RT-qPCR, relative expression of gyrA. The assay is classed as cell-based, Streptococcus pneumoniae. As to conditions: TIGR4; 7.5 μM CPP-anti-gyrA PNA; 6 h; normalised to 5S rRNA; 2^–ΔΔCT; n = 3. The protocol:
as §4, §5, §3

As to “GRKKRRQRRRYK-eg-ctgccaagatga [TAT-anti-rpoB PNA, HIV-1 TAT (48–57) peptide coupled to antisense PNA against S. pneumoniae rpoB]”, the “Expression of ply relative to mock-treated control” value in assay [1] came out at 45%. Also, in assay [2], the “rpoB transcript level relative to mock-treated control” value was 45%. In assay [3], the “Expression of pspA relative to mock-treated control” value is given as 57%.

Turning to “RXRRXRRXRRXRXB-eg-ctgccaagatga [(RXR)4XB-anti-rpoB PNA, (RXR)4XB peptide coupled to antisense PNA against rpoB]”, the “Expression of ply relative to mock-treated control” value in assay [1] is 56%. In addition, the “rpoB transcript level relative to mock-treated control” value in assay [2] worked out at 51%. Further, in assay [3], the “Expression of pspA relative to mock-treated control” value is on record as “no significant reduction”.

On to “RXRRXRRXRRXRXB-eg-tgcattaata [(RXR)4XB-anti-gyrA PNA, (RXR)4XB peptide coupled to antisense PNA against gyrA]”, for which the “Time to complete eradication of S. pneumoniae CFU” value in assay [4] is recorded as 12 h. In addition, in assay [5], the “log CFU reduction of bacterial load compared to mock-treated larvae” value was 1. In addition, the “gyrA mRNA level relative to mock-treated control” value in assay [6] is recorded as 45%.
